# Assay: in vitro
# Details: human, hela cells, % viability
row,Structure (SMILES),"viability at 28.5 h, 10 µM"
1,O=C1Nc2ccc(-c3ccc(Cl)cc3)cc2C(=O)N2CCN(C(=O)CO)C[C@H]12 [CBK289594],96.1%
2,CCCNC(=O)N1CCN2C(=O)c3cc(-c4ccccc4F)ccc3NC(=O)[C@@H]2C1 [CBK289595],95.5%
3,CC(=O)N1CCN2C(=O)c3cc(-c4ccc5c(c4)OCO5)ccc3NC(=O)[C@H]2C1 [CBK289597],90.1%
4,O=C1N[C@@H](CC2CCCCC2)C(=O)N2CCN(C(=O)c3cccc(F)c3)C[C@H]12 [CBK289599],115%
5,O=C1N[C@@H](Cc2ccc(F)cc2)C(=O)N2CCN(C(=O)c3cccc(F)c3)C[C@H]12 [CBK289600],111%
6,N#Cc1ccc(C(=O)N2CCN3C(=O)[C@H](Cc4ccc(F)cc4)NC(=O)[C@H]3C2)cc1 [CBK289602],106%
7,COc1ccc(C[C@@H]2NC(=O)[C@H]3CN(C(=O)c4cccc(F)c4)CCN3C2=O)cc1 [CBK289604],88.8%
8,COC(=O)[C@@H]1CN(C(=O)C2CCCC2)CCN1C(=O)c1cccs1 [CBK289609],93.5%
9,COC(=O)[C@@H]1CN(C(=O)c2cccs2)CCN1C(=O)c1cccnc1 [CBK289610],87%
10,COC(=O)[C@@H]1CN(C(=O)Nc2ccccc2)CCN1S(C)(=O)=O [CBK289611],96.9%
11,COc1ccc(C[C@@H]2NC(=O)[C@H]3CN(C(=O)Nc4cccc(OC)c4)CCN3C2=O)cc1 [CBK289617],98.9%
12,COc1cccc(NC(=O)N2CCN3C(=O)[C@H](Cc4ccc(O)cc4)NC(=O)[C@@H]3C2)c1 [CBK289618],99%
13,C=CCO[C@@H]1C[C@H]2C(=O)N3CCN(C(=O)NC4CCCCC4)C[C@H]3C(=O)N2C1 [CBK289619],82.5%
14,COC(=O)[C@@H](C)NC(=O)[C@@H]1CN(C(=O)NC(C)C)CCN1C(=O)C1CCCCC1 [CBK289622],90.7%
15,COC(=O)[C@@H](C)NC(=O)[C@@H]1CN(C(=O)NC(C)C)CCN1C(=O)c1cccs1 [CBK289624],110%
16,COC(=O)[C@@H](C)NC(=O)[C@@H]1CN(C(=O)c2cccc(F)c2)CCN1S(C)(=O)=O [CBK289625],96.8%
17,COC(=O)[C@@H](C)NC(=O)[C@H]1CN(S(=O)(=O)c2ccccc2)CCN1C(C)=O [CBK289626],88.2%
18,COC(=O)[C@@H](C)NC(=O)[C@H]1CN(C(=O)Nc2ccccc2)CCN1C(C)=O [CBK289627],86.3%
19,COC(=O)[C@@H](C)NC(=O)[C@H]1CN(C(=O)c2cccnc2)CCN1C(=O)c1cccs1 [CBK289628],82.4%
20,COC(=O)[C@@H](C)NC(=O)[C@H]1CN(C(=O)Nc2ccccc2)CCN1C(=O)c1cccs1 [CBK289629],97.2%
21,COC(=O)[C@@H](C)NC(=O)[C@H]1CN(C(=O)c2cccnc2)CCN1C(=O)NC(C)C [CBK289630],104%

row,Structure (SMILES),"viability at 28.5 h, 10 µM"
1,COC(=O)[C@@H](C)NC(=O)[C@H]1CN(C(=O)Nc2ccccc2)CCN1C(=O)NC(C)C [CBK289631],113%
2,C[C@@H](c1ccccc1)N1C(=O)[C@@H]2CN(C(=O)CC3(CC(=O)O)CCCC3)CCN2C1=O [CBK289637],88.7%
3,C[C@H](c1ccccc1)N1C(=O)[C@@H]2CN(C(=O)CC(C)(C)CC(=O)O)CCN2C1=O [CBK289639],114%
4,O=C1[C@H]2CN(S(=O)(=O)c3ccc(F)cc3)CCN2C(=O)N1CCO [CBK289640],84.5%
5,COCC(=O)N1CCN2C(=O)N(Cc3ccccc3)C(=O)[C@H]2C1 [CBK289641],91.4%
6,c1ccc(-c2cc(CC3(NCC4CCCCC4)COC3)no2)nc1 [CBK289644],93%
7,CN(Cc1ccccc1)Cc1cc(CC2(NCc3ccccc3)COC2)no1 [CBK289645],88.9%
8,O=C(N[C@@H](Cn1cc(Cl)c(=O)[nH]c1=O)C(=O)O)C1CC1 [CBK289649],88.3%
9,O=C(N[C@@H](Cn1ccc(=O)[nH]c1=O)C(=O)O)C1CCCCC1 [CBK289651],85.8%
10,N#Cc1ccc(CNC2(Cc3cc(-c4ccc(F)cc4)on3)COC2)cc1 [CBK289653],87.3%
11,Fc1ccc(-c2cc(CC3(NCc4ccc5c(c4)OCO5)COC3)no2)cc1 [CBK289654],109%
12,O=C(c1cc(CC2(NCc3ccc(F)cc3)COC2)no1)N1CCCCC1 [CBK289657],92.4%
13,O=C(N[C@@H](Cn1cc(Cl)c(=O)[nH]c1=O)C(=O)O)C1CCC1 [CBK289659],89.2%
14,Oc1cccc(-c2cc(CC3(NCc4cnc5ccccc5c4)COC3)no2)c1 [CBK289662],107%
15,CCc1cn(C[C@H](NC(=O)C2CCCC2)C(=O)O)c(=O)[nH]c1=O [CBK289664],106%
16,Cn1ccnc1CN1C(=O)CO[C@H]2CN(Cc3ccc4c(c3)OCO4)C[C@H]21 [CBK289665],90%
17,Cc1cn(C[C@H](NC(=O)c2cccc(F)c2)C(=O)O)c(=O)[nH]c1=O [CBK289667],109%
18,CCc1cn(C[C@H](NC(=O)c2ccco2)C(=O)O)c(=O)[nH]c1=O [CBK289670],86%
19,O=C1COC[C@H]([C@H](O)c2ccc(NC(=O)c3cnccn3)cc2)N1 [CBK289673],104%
20,CCNC(=O)N1C[C@@H]2OCC(=O)N(Cc3ccccc3)[C@@H]2C1 [CBK289679],104%
21,CCNC(=O)N1C[C@@H]2OCC(=O)N(Cc3cccnc3)[C@@H]2C1 [CBK289682],109%

row,Structure (SMILES),"viability at 28.5 h, 10 µM"
1,CCN1C(=O)COC[C@@H]1[C@H](O)c1ccc(NC(=O)C2CCC2)cc1 [CBK289686],85.7%
2,CC(C)CN1C(=O)COC[C@@H]1[C@H](O)c1ccc(NC(=O)C2CCCCC2)cc1 [CBK289687],106%
3,COc1ccccc1C(=O)Nc1ccc([C@@H](O)[C@H]2COCC(=O)N2)cc1 [CBK289688],97.3%
4,CS(=O)(=O)c1ccc(CN2C[C@@H]3OCC(=O)N(Cc4ccc(F)cc4)[C@@H]3C2)cc1 [CBK289690],119%
5,NC(=O)CN1C(=O)CO[C@H]2CN(Cc3ccccc3F)C[C@H]21 [CBK289693],114%
6,CC1(C)[C@H](Cc2cc(COc3ccccc3)on2)C[C@@H]1NC1CCOCC1 [CBK289694],96.5%
7,CCN1C(=O)COC[C@@H]1[C@H](O)c1ccc(NC(=O)c2ccco2)cc1 [CBK289695],85.3%
8,COc1ccc(-c2cc(CC3(NCc4ccccc4O)COC3)no2)cc1 [CBK289697],91.3%
9,O=C(c1ccccn1)N1C[C@@H]2OCC(=O)N(Cc3ccccc3)[C@@H]2C1 [CBK289698],84.3%
10,CC(=O)N1CCC(N[C@H]2C[C@@H](Cc3cc(CN4CCCCC4)on3)C2(C)C)CC1 [CBK289699],89%
11,COCc1cc(CC2(NCc3ccc(NC(C)=O)cc3)COC2)no1 [CBK289701],110%
12,CCCCc1cc(C[C@@H]2C[C@H](NS(C)(=O)=O)C2(C)C)no1 [CBK289702],105%
13,CC1(C)[C@H](Cc2cc(COc3ccccc3)on2)C[C@@H]1NS(C)(=O)=O [CBK289703],89.5%
14,COCCN1C(=O)CO[C@H]2CN(C(=O)Nc3ccc(F)cc3)C[C@H]21 [CBK289705],85.3%
15,Oc1ccc(Cn2ccnc2)c2cccnc12 [CBK291102],89.3%
16,Cc1cc(Cn2nnnc2-c2ccncc2)cc(C)c1O [CBK291103],104%
17,CC(=O)N1CCc2cc(C(=O)CN3CCOCC3)ccc21 [CBK291105],89.2%
18,O=C(CCc1cccnc1)N1CCCCC1c1nc2cc(F)ccc2[nH]1 (stereo not drawn) [CBK291106],112%
19,O=C(CCc1ccc(=O)[nH]n1)N1CCCCC1c1nc2cc(F)ccc2[nH]1 (stereo not drawn) [CBK291107],105%
20,CC(=O)Nc1cnn(-c2ccc(C(=O)N3CCCCC3c3nc4ccccc4[nH]3)cc2)c1 (stereo not drawn) [CBK291109],83.3%
21,CC(=O)N1CCCC(c2nc(-c3ccncc3)ncc2-c2ccccc2)C1 (stereo not drawn) [CBK291110],82.2%

row,Structure (SMILES),"viability at 28.5 h, 10 µM"
1,Cc1ccc(Nc2ncc(C(=O)NCc3ccccn3)c3ccccc23)cc1Cl [CBK291113],109%
2,Cc1cc(NC(=O)c2c(F)cccc2F)nc2c1c(=O)oc1ccccc12 [CBK291115],110%
3,O=C(Cn1c(=O)cc(O)c2ccccc21)N1CCN(c2ccccn2)CC1 [CBK291117],94.4%
4,CCCn1c(=O)c(C(=O)NCCN(CC)CC)c(O)c2cc(Br)ccc21 [CBK291118],85.7%
5,Cc1cc(NC(=O)c2ccc3c(c2)OCO3)nc2c1c(=O)oc1ccccc12 [CBK291121],117%
6,Cc1cc(NC(=O)c2ccc3ccccc3c2)nc2c1c(=O)oc1ccccc12 [CBK291122],117%
7,Cc1cc(O)cc(=O)n1Cc1cccnc1 [CBK291123],112%
8,Cc1cc(NC(=O)c2ccco2)nc2c1c(=O)oc1ccccc12 [CBK291124],110%
9,Cc1cc(NC(=O)c2ccccc2)nc2c1c(=O)oc1ccccc12 [CBK291126],113%
10,Cc1cc(NC(=O)Cc2ccccc2)nc2c1c(=O)oc1ccccc12 [CBK291127],102%
11,CCCCCn1c(=O)c(C(=O)NCc2ccc(Cl)cc2)c(O)c2ccccc21 [CBK291131],117%
12,Cc1cc(NC(=O)C(C)(C)Oc2ccc(Cl)cc2)nc2c1c(=O)oc1ccccc12 [CBK291132],112%
13,CCCCC1CCC(C(=O)Nc2cc(C)c3c(=O)oc4ccccc4c3n2)CC1 (stereo not drawn) [CBK291136],101%
14,CC(C)N1CNc2c(c(=O)nc(O)n2Cc2ccccc2)C1 [CBK291139],92.5%
15,O=c1[nH]c(=O)n(Cc2ccccc2)c2nc[nH]c12 [CBK291140],108%
16,Cc1ccccc1-c1csc2c(=O)[nH]c(N3CCC4(CC3)OCCO4)nc12 [CBK291141],96.9%
17,Cc1cccc(-c2csc3c(=O)[nH]c(N4CCC5(CC4)OCCO5)nc23)c1 [CBK291142],102%
18,Cc1cc(O)c(C(=O)Nc2cccc(Cl)c2)c(=O)n1Cc1ccco1 [CBK291143],91.2%
